Data from patent US20250381242A1 (INVAIO SCIENCES, INC., priority 2024, published 2025).
No end group written: not given here.

How the values were obtained:
X. citri = test: Bacterial growth inhibition by OD600 absorbance, X. citri; assay type: cell-based, X. citri subsp. citri (ATCC 49118); conditions: peptide 10 μM, 24 hours at 30° C., OD 600 nm
L. crescens = conditions: 10 μM
E. amylovora = conditions: 24 h, 10 μM
E. coli = test: Bacterial growth inhibition by OD600 absorbance, E. coli; assay type: cell-based, E. coli (DH5-alpha); conditions: peptide 10 μM, 24 hours at 37° C., OD 600 nm
Method in brief: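 Peptides added to bacterial culture at 10 μM final (0.1% DMSO); X. citri grown at 30° C., E. coli at 37° C., for 24 h. OD600 read before and after growth; percent inhibition derived relative to 0.1% DMSO negative and oxytetracycline/streptomycin positive controls.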

A. tumefaciens = conditions: 24 h, 10 μM

Sequence: WKKIWKKIWKPGIKKWIKKWIK [compound 24]
- growth inhibition, X. citri (X. citri): 99.69%
- growth inhibition, L. crescens (L. crescens): <90%
- growth inhibition, E. amylovora (E. amylovora): 98.38%
- growth inhibition, E. coli (E. coli): 100.00%
- growth inhibition, A. tumefaciens (A. tumefaciens): 97.97%

Sequence: WKLKWKLKWKLK [compound 104]
- growth inhibition, X. citri (X. citri): <90%
- growth inhibition, L. crescens (L. crescens): <90%
- growth inhibition, E. amylovora (E. amylovora): 99.91%
- growth inhibition, E. coli (E. coli): <90%
- growth inhibition, A. tumefaciens (A. tumefaciens): 100.00%

Sequence: WLNALLHHGYKRKFH [compound 93]
- growth inhibition, X. citri (X. citri): <90%
- growth inhibition, L. crescens (L. crescens): <90%
- growth inhibition, E. amylovora (E. amylovora): <90%
- growth inhibition, E. coli (E. coli): <90%
- growth inhibition, A. tumefaciens (A. tumefaciens): <90%

Sequence: WLSKTAKKLWLSKTAKKLWLSKTAKKL [compound 15]
- growth inhibition, X. citri (X. citri): 96.25%
- growth inhibition, L. crescens (L. crescens): <90%
- growth inhibition, E. amylovora (E. amylovora): <90%
- growth inhibition, E. coli (E. coli): <90%
- growth inhibition, A. tumefaciens (A. tumefaciens): <90%

Sequence: WWKAAAKAAAKWW [compound 117]
- growth inhibition, X. citri (X. citri): 100.00%
- growth inhibition, L. crescens (L. crescens): <90%
- growth inhibition, E. amylovora (E. amylovora): 99.79%
- growth inhibition, E. coli (E. coli): <90%
- growth inhibition, A. tumefaciens (A. tumefaciens): 99.97%
